In the NIST ThermoML archive (doi:10.1016/j.fluid.2014.09.014):
± gives the expanded uncertainty stated by the source.

Assay: refractive index (other wavelength) (dimensionless); xn = mol fraction of the nth substance listed
Conditions: 318.15 K, 101 kPa, Liquid, Standard Abbe refractometry

CC(C)OC(C)C [diisopropyl ether] + CC(C)O
refractive index
Conditions	Wavelength=486.1 nm	Wavelength=546.1 nm	Wavelength=587.6 nm	Wavelength=589.3 nm
x1 = 0.0277	–	1.36758 ± 0.00032	1.36611 ± 0.00032	1.36605 ± 0.00032
x1 = 0.0507	–	1.36752 ± 0.00032	1.36604 ± 0.00032	1.36598 ± 0.00032
x1 = 0.051	–	1.36745 ± 0.00032	1.36598 ± 0.00032	1.36592 ± 0.00032
x1 = 0.0717	–	1.36708 ± 0.00032	1.36563 ± 0.00032	1.36557 ± 0.00032
x1 = 0.1528	–	1.36641 ± 0.00032	1.36495 ± 0.00032	1.36489 ± 0.00032
x1 = 0.1553	–	1.36641 ± 0.00032	1.36495 ± 0.00032	1.36489 ± 0.00032
x1 = 0.1938	–	1.36618 ± 0.00033	1.3647 ± 0.00033	1.36465 ± 0.00033
x1 = 0.2029	1.36826 ± 0.00033	1.36546 ± 0.00033	1.36403 ± 0.00033	1.36398 ± 0.00033
x1 = 0.245	1.36775 ± 0.00033	1.36498 ± 0.00033	1.36354 ± 0.00033	1.36348 ± 0.00033
x1 = 0.297	1.36682 ± 0.00034	1.36402 ± 0.00034	1.36259 ± 0.00034	1.36254 ± 0.00034
x1 = 0.2973	1.36706 ± 0.00034	1.36427 ± 0.00034	1.36283 ± 0.00034	1.36278 ± 0.00034
x1 = 0.3068	1.36679 ± 0.00034	1.36402 ± 0.00034	1.3626 ± 0.00034	1.36255 ± 0.00034
x1 = 0.398	1.36558 ± 0.00035	1.36283 ± 0.00034	1.36139 ± 0.00034	1.36134 ± 0.00034
x1 = 0.4609	1.36464 ± 0.00035	1.36184 ± 0.00035	1.36044 ± 0.00035	1.36036 ± 0.00035
x1 = 0.5434	1.36363 ± 0.00036	1.36086 ± 0.00036	1.35943 ± 0.00036	1.35938 ± 0.00036
x1 = 0.6032	1.36282 ± 0.00037	1.36011 ± 0.00037	1.35865 ± 0.00037	1.3586 ± 0.00037
x1 = 0.6371	1.36247 ± 0.00038	1.35971 ± 0.00038	1.35829 ± 0.00038	1.35824 ± 0.00038
x1 = 0.701	1.36166 ± 0.00039	1.35892 ± 0.00039	1.35749 ± 0.00039	–
x1 = 0.754	1.36123 ± 0.00039	1.35847 ± 0.00039	1.35706 ± 0.00039	–
x1 = 0.791	1.3608 ± 0.0004	1.35802 ± 0.0004	1.35663 ± 0.0004	–
x1 = 0.8296	1.36034 ± 0.00041	1.3576 ± 0.00041	1.35619 ± 0.00041	–
x1 = 0.8864	1.36022 ± 0.00042	1.35745 ± 0.00042	1.35605 ± 0.00042	–
x1 = 0.8903	1.35967 ± 0.00042	1.35689 ± 0.00042	1.35548 ± 0.00042	–
x1 = 0.9113	1.3594 ± 0.00042	1.35663 ± 0.00042	1.35521 ± 0.00042	–
x1 = 0.9547	1.35891 ± 0.00043	1.35618 ± 0.00043	1.35475 ± 0.00043	–
x1 = 0.973	1.35854 ± 0.00043	1.3558 ± 0.00043	1.35439 ± 0.00043	–
x1 = 0.9771	1.35849 ± 0.00043	1.35575 ± 0.00043	1.35433 ± 0.00043	–
x1 = 1	1.35832 ± 0.00044	1.35556 ± 0.00044	1.35416 ± 0.00044	–
